Assay results published in ChEMBL document CHEMBL1148041, “New fatty acid esters of drimane sesquiterpenes from Lactarius uvidus” (J Nat Prod, 1994).

Tests used:
HL-60 [1] = experiment: Cytotoxicity against human HL60 cells assessed as inhibition of [3H]thymidine incorporation at 0.05 gamma/ml; type: functional
HL-60 [2] = experiment: Cytotoxicity against human HL60 cells assessed as inhibition of [3H]thymidine incorporation at 50 gamma/ml; type: functional
Artemia salina = experiment: Toxicity in Artemia salina; type: organism-based; settings: in vivo

CC1(C)[C@@H](O)CC[C@]2(C)[C@@H](CO)[C@@]3(C)O[C@H]3C(=O)[C@@H]12 [UVIDIN B]
inhibition (INH) (HL-60 [1]): 0%
inhibition (INH) (HL-60 [2]): 61%

CC1(C)CCC[C@]2(C)[C@@H](CO)[C@@]3(C)O[C@H]3C(=O)[C@@H]12 [UVIDIN A]
LC50 (Artemia salina): 48.8 ppm
inhibition (INH) (HL-60 [1]): 21%
inhibition (INH) (HL-60 [2]): 97%
